Measured values from US20090012103A1, “SUBSTITUTED HETEROCYCLIC COMPOUNDS” (priority 2007, published 2009).
Like-named read-outs stand apart in the source and are kept apart here.

Molecular target: wild-type human cardiac sodium channel, hNav1.5 (Homo sapiens, UniProt Q14524)
Test: Late INa screening assay (late sodium current, PatchXpress whole cell patch clamp)
Assay type: cell-based
Conditions: read-out: Late INa % blk

wild-type human cardiac sodium channel, hNav1.5, sequence (Q14524 whole entry): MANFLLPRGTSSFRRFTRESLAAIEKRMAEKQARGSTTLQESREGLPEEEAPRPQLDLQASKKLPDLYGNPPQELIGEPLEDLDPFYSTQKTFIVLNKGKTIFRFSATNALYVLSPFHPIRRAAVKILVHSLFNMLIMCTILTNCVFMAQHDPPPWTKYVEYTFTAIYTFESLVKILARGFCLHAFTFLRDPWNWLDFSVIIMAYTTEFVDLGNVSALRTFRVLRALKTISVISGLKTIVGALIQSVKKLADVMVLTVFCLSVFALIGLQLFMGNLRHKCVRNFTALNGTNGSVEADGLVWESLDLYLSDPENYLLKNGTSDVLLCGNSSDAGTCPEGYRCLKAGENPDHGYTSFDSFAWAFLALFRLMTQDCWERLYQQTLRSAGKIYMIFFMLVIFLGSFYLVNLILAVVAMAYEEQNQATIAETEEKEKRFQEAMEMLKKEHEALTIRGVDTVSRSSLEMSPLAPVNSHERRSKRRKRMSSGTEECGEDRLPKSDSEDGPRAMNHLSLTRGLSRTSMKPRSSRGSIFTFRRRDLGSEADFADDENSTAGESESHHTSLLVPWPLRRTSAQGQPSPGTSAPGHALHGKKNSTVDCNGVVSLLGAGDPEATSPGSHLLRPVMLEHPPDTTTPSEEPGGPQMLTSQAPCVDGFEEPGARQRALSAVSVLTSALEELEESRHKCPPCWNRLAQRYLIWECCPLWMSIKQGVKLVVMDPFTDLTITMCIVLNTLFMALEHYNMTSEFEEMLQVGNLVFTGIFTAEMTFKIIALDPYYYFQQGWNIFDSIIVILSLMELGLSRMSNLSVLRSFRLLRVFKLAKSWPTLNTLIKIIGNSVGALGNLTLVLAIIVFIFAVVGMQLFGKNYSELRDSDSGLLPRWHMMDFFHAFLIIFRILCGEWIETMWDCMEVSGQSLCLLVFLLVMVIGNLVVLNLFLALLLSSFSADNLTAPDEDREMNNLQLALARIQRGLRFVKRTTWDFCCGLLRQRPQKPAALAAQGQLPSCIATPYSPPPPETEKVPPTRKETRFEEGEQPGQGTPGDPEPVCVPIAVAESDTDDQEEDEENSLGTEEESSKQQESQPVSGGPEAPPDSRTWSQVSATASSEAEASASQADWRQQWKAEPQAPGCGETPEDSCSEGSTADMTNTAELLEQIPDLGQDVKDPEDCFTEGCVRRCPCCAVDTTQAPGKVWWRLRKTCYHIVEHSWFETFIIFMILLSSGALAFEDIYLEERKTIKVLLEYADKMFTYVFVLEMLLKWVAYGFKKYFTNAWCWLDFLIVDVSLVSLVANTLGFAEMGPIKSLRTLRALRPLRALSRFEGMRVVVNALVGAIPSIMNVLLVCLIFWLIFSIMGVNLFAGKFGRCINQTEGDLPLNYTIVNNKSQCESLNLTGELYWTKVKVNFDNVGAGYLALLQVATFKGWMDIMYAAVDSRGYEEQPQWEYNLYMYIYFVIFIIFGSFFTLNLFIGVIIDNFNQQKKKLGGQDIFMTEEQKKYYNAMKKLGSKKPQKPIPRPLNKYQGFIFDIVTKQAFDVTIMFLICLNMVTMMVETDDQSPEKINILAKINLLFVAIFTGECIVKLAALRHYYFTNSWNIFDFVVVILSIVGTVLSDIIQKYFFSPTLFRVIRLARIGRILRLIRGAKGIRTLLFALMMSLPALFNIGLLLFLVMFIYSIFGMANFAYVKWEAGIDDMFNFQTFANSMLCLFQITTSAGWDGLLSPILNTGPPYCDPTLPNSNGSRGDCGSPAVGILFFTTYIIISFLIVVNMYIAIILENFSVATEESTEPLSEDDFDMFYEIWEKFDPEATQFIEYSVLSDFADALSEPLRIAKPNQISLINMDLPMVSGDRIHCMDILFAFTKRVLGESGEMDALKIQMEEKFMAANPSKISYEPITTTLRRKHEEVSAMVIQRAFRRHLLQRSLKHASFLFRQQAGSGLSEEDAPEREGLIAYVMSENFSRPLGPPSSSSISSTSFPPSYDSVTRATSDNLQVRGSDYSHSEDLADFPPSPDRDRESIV

SMILES | inhibition at 10 µM (compound at 10 μM) [%] | inhibition at 10 µM [%]
CC1=C(C(=O)N2CCc3ccccc3C2)C(c2cccc3ccccc23)C2=C(CCCC2=O)N1 (centres unmarked) [PT-171, 2-methyl-4-(naphthalen-1-yl)-3-(1,2,3,4-tetrahydroisoquinoline-2-carbonyl)-4,6,7,8-tetrahydroquinolin-5(1H)-one] | 20.2 | 
CC1=C(C(=O)N2CCC(c3cccc(C(=O)O)c3)CC2)C(c2cccc3ccccc23)C2=C(CCCC2=O)N1 (centres unmarked) [PT-172, 3-(1-(2-methyl-4-(naphthalen-1-yl)-5-oxo-1,4,5,6,7,8-hexahydroquinoline-3-carbonyl)piperidin-4-yl)benzoic acid] | 16.3 | 
CCCC1=C(C(=O)OCC)C(c2ccc(Br)s2)C(C(=O)OCC)=C(CCC)N1 [PT-182, diethyl 4-(5-bromothiophen-2-yl)-2,6-dipropyl-1,4-dihydropyridine-3,5-dicarboxylate] | 33 | 
CCOC(=O)C1=C(C)NC2=C(C(=O)c3ccccc32)C1c1cccs1 (centres unmarked) [PT-187, ethyl 2-methyl-5-oxo-4-(thiophen-2-yl)-4,5-dihydro-1H-indeno[1,2-b]pyridine-3-carboxylate] | -2.6 | 
CCOC(=O)C1=C(C)NC2=C(C(=O)CCC2)C1c1cc2cc(OC)ccc2nc1Cl (centres unmarked) [PT-188, ethyl 2-chloro-6-methoxy-2′-methyl-5′-oxo-1′,4′,5′,6′,7′,8′-hexahydro-3,4′-biquinoline-3′-carboxylate] | -0.8 | 
CCOC(=O)C1=C(C)NC2=C(C(=O)CCC2)C1c1cccnc1Cl (centres unmarked) [PT-189, ethyl 4-(2-chloropyridin-3-yl)-2-methyl-5-oxo-1,4,5,6,7,8-hexahydroquinoline-3-carboxylate] | 0.5 | 
CC1=C(C(=O)OCc2ccccc2)C(c2ccc3ccccc3n2)n2nnnc2N1 (centres unmarked) [PT-196, benzyl 5-methyl-7-(quinolin-2-yl)-4,7-dihydrotetrazolo[1,5-a]pyrimidine-6-carboxylate] | 32.5 | 
CC1=C(C(=O)OCc2ccccc2)C(c2ccnc3ccccc23)n2nnnc2N1 (centres unmarked) [PT-197, benzyl 5-methyl-7-(quinolin-4-yl)-4,7-dihydrotetrazolo[1,5-a]pyrimidine-6-carboxylate] | 21.5 | 
c1ccc2c(c1)CCC1=C2C(c2cccc3ccccc23)n2nnnc2N1 (centres unmarked) [PT-198, 12-(naphthalen-1-yl)-5,6,7,12-tetrahydrobenzo[f]tetrazolo[5,1-b]quinazoline] |  | 50.9
COc1ccc(-c2ccc(COC(=O)C3=C(C)Nc4nnnn4C3c3cccc4ccccc34)cc2)cc1 (centres unmarked) [PT-199, (4′-methoxybiphenyl-4-yl)methyl 5-methyl-7-(naphthalen-1-yl)-4,7-dihydrotetrazolo[1,5-a]pyrimidine-6-carboxylate] | 20.3 | 
COC(=O)c1ccc(-c2ccc(COC(=O)C3=C(C)Nc4nnnn4C3c3cccc4ccccc34)cc2)cc1 (centres unmarked) [PT-200, (4′-(methoxycarbonyl)biphenyl-4-yl)methyl 5-methyl-7-(naphthalen-1-yl)-4,7-dihydrotetrazolo[1,5-a]pyrimidine-6-carboxylate] | 7.4 | 
CCOC(=O)C1=C(C)Nc2nnnn2C1c1ccc(C2C(C(=O)OCC)=C(C)Nc3nnnn32)cc1 (centres unmarked) [PT-201, diethyl 7,7′-(1,4-phenylene)bis(5-methyl-4,7-dihydrotetrazolo[1,5-a]pyrimidine-6-carboxylate)] | 7.8 | 
CCOC(=O)C1=C(C)Nc2nnnn2C1c1cccc(C2C(C(=O)OCC)=C(C)Nc3nnnn32)c1 (centres unmarked) [PT-202, diethyl 7,7′-(1,3-phenylene)bis(5-methyl-4,7-dihydrotetrazolo[1,5-a]pyrimidine-6-carboxylate)] | 9.7 | 
CC1=C(c2nnc(-c3ccccc3)o2)C(c2cccc3ccccc23)n2nnnc2N1 (centres unmarked) [PT-203, 2-(5-methyl-7-(naphthalen-1-yl)-4,7-dihydrotetrazolo[1,5-a]pyrimidin-6-yl)-5-phenyl-1,3,4-oxadiazole] | 10.9 | 
O=C1OCC(O)=C1C(C1=C(O)COC1=O)c1cccc2ccccc12 [PT-222, 3,3′-(naphthalen-1-ylmethylene)bis(4-hydroxyfuran-2(5H)-one)] | 15.8 | 
CC1=C(C(=O)OCc2ccccc2)[C@@H](c2ccccc2-c2ccc(C(F)(F)F)cc2)n2nnnc2N1 [PT-236, (R)-benzyl 5-methyl-7-(4′-(trifluoromethyl)biphenyl-2-yl)-4,7-dihydrotetrazolo[1,5-a]pyrimidine-6-carboxylate] | 68 | 
CC1=C(C(=O)OCc2ccccc2)[C@@H](c2ccccc2-c2cccc(C(N)=O)c2)n2nnnc2N1 [PT-238, (R)-benzyl 7-(3′-carbamoylbiphenyl-2-yl)-5-methyl-4,7-dihydrotetrazolo[1,5-a]pyrimidine-6-carboxylate] | 49.9 | 
CC1=C(C(=O)OCc2ccccc2)[C@@H](c2ccccc2-c2cccc(C#N)c2)n2nnnc2N1 [PT-239, (R)-benzyl 7-(3′-cyanobiphenyl-2-yl)-5-methyl-4,7-dihydrotetrazolo[1,5-a]pyrimidine-6-carboxylate] | 94.8 | 
CC1=C(C(=O)OCc2ccccc2)[C@@H](c2ccccc2-c2cccc(F)c2)n2nnnc2N1 [PT-240, (R)-benzyl 7-(3′-fluorobiphenyl-2-yl)-5-methyl-4,7-dihydrotetrazolo[1,5-a]pyrimidine-6-carboxylate] | 85 | 
COc1cccc(-c2ccccc2[C@@H]2C(C(=O)OCc3ccccc3)=C(C)Nc3nnnn32)c1 [PT-241, (R)-benzyl 7-(3′-methoxybiphenyl-2-yl)-5-methyl-4,7-dihydrotetrazolo[1,5-a]pyrimidine-6-carboxylate] | 77.1 | 
CC1=C(C(=O)OCc2ccccc2)[C@@H](c2ccccc2-c2ccc(C(N)=O)cc2)n2nnnc2N1 [PT-242, (R)-benzyl 7-(4′-carbamoylbiphenyl-2-yl)-5-methyl-4,7-dihydrotetrazolo[1,5-a]pyrimidine-6-carboxylate] | 11 | 
CC1=C(C(=O)OCc2ccccc2)[C@@H](c2ccccc2-c2ccc(C#N)cc2)n2nnnc2N1 [PT-243, (R)-benzyl 7-(4′-cyanobiphenyl-2-yl)-5-methyl-4,7-dihydrotetrazolo[1,5-a]pyrimidine-6-carboxylate] | 91.5 | 
CC1=C(C(=O)OCc2ccccc2)C(c2ccccc2-c2cccc(C(=O)O)c2)C2=C(CCCC2=O)N1 (centres unmarked) [PT-248, 2′-(3-(benzyloxycarbonyl)-2-methyl-5-oxo-1,4,5,6,7,8-hexahydroquinolin-4-yl)biphenyl-3-carboxylic acid] | 27.2 | 
CCOC(=O)C1=C(C)NC2=C(C(=O)CCC2)C1c1ccccc1-c1ccc(C(=O)O)cc1 (centres unmarked) [PT-250, 2′-(3-(ethoxycarbonyl)-2-methyl-5-oxo-1,4,5,6,7,8-hexahydroquinolin-4-yl)biphenyl-4-carboxylic acid] | 7.6 | 
COC(=O)c1ccc(OCCOC(=O)C2=C(C)Nc3nnnn3C2c2cccc3ccccc23)cc1 (centres unmarked) [PT-251, 2-(4-(methoxycarbonyl)phenoxy)ethyl 5-methyl-7-(naphthalen-1-yl)-4,7-dihydrotetrazolo[1,5-a]pyrimidine-6-carboxylate] | 11.5 | 
CC1=C(C(=O)OCc2ccccc2)C(c2ccccc2-c2cccc(C(=O)O)c2)n2nnnc2N1 (centres unmarked) [PT-253, 2′-(6-(benzyloxycarbonyl)-5-methyl-4,7-dihydrotetrazolo[1,5-a]pyrimidin-7-yl)biphenyl-3-carboxylic acid] | 9.1 | 
